# Source: US20230382870A1, “N-AROMATIC AMIDE COMPOUNDS, PREPARATION METHODS AND USES THEREOF” (SHENZHEN EDK PHARMACEUTICAL TECHNOLOGY CO., LTD., priority 2021, published 2023)
# Molecular target: androgen receptor (Rattus norvegicus (Rat), UniProt P15207)
# Assay: Androgen receptor competition binding with radiolabeled dihydrotestosterone (hydroxyapatite separation, scintillation counting)
# Conditions: androgen receptor from prostate of male SD rats; competition with radiolabeled DHT; 4 Celsius degrees, 15 hours
# Experimental: Reagents and instruments: radiolabeled dihydrotestosterone […] and unlabelled dihydrotestosterone (DHT) purchased from Sigma-Aldrich (St. Louis, Mo.), scintillation solution purchased from Perkin Elmer Life Sciences (Boston, Mass.), hydroxyapatite (HAP) suspension purchased from Bio-Rad Laboratories (Hercules, Calif.), buffer (containing 10 mM Tris, 1.5 mM disodium EDTA, 0.25 M sucrose, 10 mM sodium molybdate and 1 mM PMSF, pH value adjusted to 7.4), and hydroxyapatite (HAP) solution (containing 50 mM Tris and 1 mM KH2PO4, pH value adjusted to 7.4).
# In the present invention, the biological activity of the N-aromatic amide compounds with the formula (I) and/or (II) is measured accord to the following method. […] The androgen receptor (prepared from the prostate of male SD rats, 200-250 g of male Sprague-Dawley rats) and the radiolabeled dihydrotestosterone ([…], 84 Ci/mmol) are added to the buffer and well mixed for preparing reaction solution. The concentration gradients of the diluted compounds are respectively added into the reaction solution and well mixed, and the resulting mixtures are incubated at 4 Celsius degrees for 15 hours, so that the compounds and the dihydrotestosterone can fully react with the androgen receptor. Thereafter, the hydroxyapatite (HAP) suspension is added therein, well mixed, incubated for 10 minutes at 4 Celsius degrees, and centrifuged for removing the supernatant containing free dihydrotestosterone. The dihydrotestosterone bound to the androgen receptor is adsorbed in the hydroxyapatite and thus retained in the precipitated particles, thereby separating the bound and unbound radiolabelled ligands. A scintillation solution is added to the precipitate, well mixed, and detected for the radioactivity intensity using a WALLACE MicroBeta Trilux Scintillator (Perkin Elmer).The detected radioactivity intensity values for the concentration gradients are processed to obtain values of ICso and K. The specific biological activity (the competition results between androgen receptor ligand and radioligand) is shown in the following table: […]
# androgen receptor, sequence (P15207 whole entry S389L): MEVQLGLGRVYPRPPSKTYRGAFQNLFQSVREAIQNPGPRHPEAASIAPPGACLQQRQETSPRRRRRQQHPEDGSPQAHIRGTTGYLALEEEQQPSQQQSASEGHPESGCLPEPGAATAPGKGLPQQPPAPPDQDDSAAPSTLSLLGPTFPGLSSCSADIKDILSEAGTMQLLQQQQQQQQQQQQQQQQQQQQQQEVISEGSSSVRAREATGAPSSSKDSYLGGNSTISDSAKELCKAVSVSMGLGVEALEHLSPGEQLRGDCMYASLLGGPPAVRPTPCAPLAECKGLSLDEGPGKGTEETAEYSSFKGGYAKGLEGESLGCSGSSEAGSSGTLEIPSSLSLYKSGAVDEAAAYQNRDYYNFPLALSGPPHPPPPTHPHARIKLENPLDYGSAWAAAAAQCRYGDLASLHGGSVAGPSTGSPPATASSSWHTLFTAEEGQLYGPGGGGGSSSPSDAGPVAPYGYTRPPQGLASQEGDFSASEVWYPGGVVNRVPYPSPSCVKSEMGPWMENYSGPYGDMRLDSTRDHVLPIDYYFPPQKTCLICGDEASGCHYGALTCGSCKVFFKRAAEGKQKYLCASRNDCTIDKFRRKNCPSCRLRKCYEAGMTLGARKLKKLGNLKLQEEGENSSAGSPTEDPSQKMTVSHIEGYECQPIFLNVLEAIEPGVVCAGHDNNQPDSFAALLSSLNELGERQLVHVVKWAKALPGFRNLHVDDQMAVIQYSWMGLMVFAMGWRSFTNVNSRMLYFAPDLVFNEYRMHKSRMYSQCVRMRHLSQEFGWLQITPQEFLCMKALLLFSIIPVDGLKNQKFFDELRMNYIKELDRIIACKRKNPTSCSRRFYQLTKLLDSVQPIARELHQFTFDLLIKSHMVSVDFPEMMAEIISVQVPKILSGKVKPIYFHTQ
Structure (SMILES),IC50 [nM],Ki [nM]
"CC(C)(C(=O)Nc1ccc(C#N)c(C(F)(F)F)c1)n1ccc2cc(F)c(-c3ccccc3)cc21 [Example 2, N-(4-cyano-3-trifluoromethyl) phenyl-2-(5-fluoro-6-phenyl-1H-indolyl-1-yl)-2-methylpropanamide]",337,–
"CC(C)(C(=O)Nc1ccc(C#N)c(C(F)(F)F)c1)n1cc(C#N)c(Cl)n1 [Example 30, 2-(3-chloro-4-cyano-1H-pyrazolyl-1-yl)-N-(4-cyano-3-trifluoromethyl)-phenyl-2-methylpropanamide]",88,–
"CC(C)(C(=O)Nc1ccc(C#N)c(C(F)(F)F)c1)n1cc(Br)c(F)n1 [Example 25, 2-(4-bromo-3-fluoro-1H-pyrazolyl-1-yl)-N-(4-cyano-3-trifluoromethyl)-phenyl-2-methylpropanamide]",91,–
"CC(C)(C(=O)Nc1ccc(C#N)c(C(F)(F)F)c1)n1cc(Cl)cn1 [Example 17, N-(4-cyano-3-trifluoromethyl)-phenyl-2-(4-chloro-1H-pyrazolyl-1-yl)-2-methylpropanamide]",116,–
"CC(C)(C(=O)Nc1ccc(C#N)c(C(F)(F)F)c1)n1ccc2cc(F)ccc21 [Example 3, N-(4-cyano-3-trifluoromethyl)-phenyl-2-(5-fluoro-1H-indolyl-1-yl)-2-methylpropanamide]",215,367
"CC(C)(C(=O)Nc1ccc(C#N)c(C(F)(F)F)c1)n1ccc2cc(C#N)ccc21 [Example 9, N-(4-cyano-3-trifluoromethyl)-phenyl-2-(5-cyano-1H-indolyl-1-yl)-2-methylpropanamide]",232,445
"CC(C)(C(=O)Nc1ccc(C#N)c(C(F)(F)F)c1)n1ccc2cc(C(F)(F)F)ccc21 [Example 8, N-(4-cyano-3-trifluoromethyl)-phenyl-2-(5-trifluoromethyl-1H-indolyl-1-yl)-2-methylpropanamide]",357,440
"CC(C)(C(=O)Nc1ccc(C#N)c(C(F)(F)F)c1)N1CCc2cc(F)ccc21 [Example 10, N-(4-cyano-3-trifluoromethyl)-phenyl-2-(5-fluoro-1H-2,3-dihydroindolyl-1-yl)-2-methylpropanamide]",437,387
"CC(C)(C(=O)Nc1ccc(C#N)c(Cl)c1)n1ccc2cc(F)ccc21 [Example 12, N-(3-chloro-4-cyano) phenyl-2-(5-fluoro-1H-indolyl-1-yl)-2-methylpropanamide]",205,351
"CC(C)(C(=O)Nc1ccc(C#N)c(C(F)(F)F)c1)n1cc(Cl)c(F)n1 [Example 29, 2-(3-fluoro-4-chloro-1H-pyrazolyl-1-yl)-N-(4-cyano-3-trifluoromethyl)-phenyl-2-methylpropanamide]",105,–
"CC(C)(C(=O)Nc1ccc(C#N)c(C(F)(F)F)c1)n1ccc2ccc(F)cc21 [Example 5, N-(4-cyano-3-trifluoromethyl)-phenyl-2-(6-fluoro-1H-indolyl-1-yl)-2-methylpropanamide]",227,314
"CC(C)(C(=O)Nc1ccc(C#N)c(C(F)(F)F)c1)n1cc(-c2ccc(F)cc2)c(F)n1 [Example 13, N-(4-cyano-3-trifluoromethyl)-phenyl-2-[3-fluoro-4-(4-fluorophenyl)-1H-pyrazolyl-1-yl]-2-methylpropanamide]",416,–
CC(C)(C(=O)Nc1cnc(C#N)c(C(F)(F)F)c1)n1cc(F)cn1 [Example 22],73,–
"N#Cc1ccc(NC(=O)C2(n3cc(F)cn3)CCC2)cc1C(F)(F)F [Example 23, N-(4-cyano-3-trifluoromethyl)-phenyl-1-(4-fluoro-1H-pyrazolyl-1-yl)-cyclobutane-formamide]",115,–
"N#Cc1ncc(NC(=O)C2(n3cc(F)cn3)CCC2)cc1C(F)(F)F [Example 24, N-(6-cyano-5-trifluoromethyl-pyridyl-3-yl)-1-(4-fluoro-1H-pyrazolyl-1-yl) -cyclobutane-formamide]",68,–
"CC(C)(C(=O)Nc1ccc(C#N)c(C(F)(F)F)c1)n1cc(F)c(F)n1 [Example 26, 2-(3,4-difluoro-1H-pyrazolyl-1-yl)-N-(4-cyano-3-trifluoromethyl)-phenyl-2-methylpropanamide]",75,–
"CC(C)(C(=O)Nc1ccc(C#N)c(C(F)(F)F)c1)n1ccc2c(F)cccc21 [Example 4, N-(4-cyano-3-trifluoromethyl)-phenyl-2-(4-fluoro-1H-indolyl-1-yl)-2-methylpropanamide]",246,491
"CC(C)(C(=O)Nc1ccc(C#N)c(C(F)(F)F)c1)N1CCc2cc(F)c(F)cc21 [Example 11, N-(4-cyano-3-trifluoromethyl)-phenyl-2-(5,6-difluoro-1H-2,3-dihydroindolyl-1-yl)-2-methylpropanamide]",505,505
"CC(C)(C(=O)Nc1ccc(C#N)c(C(F)(F)F)c1)n1ccc(F)n1 [Example 16, N-(4-cyano-3-trifluoromethyl)-phenyl-2-(3-fluoro-1H-pyrazolyl-1-yl)-2-methylpropanamide]",147,–
"CC(C)(C(=O)Nc1ccc(C#N)c(C(F)(F)F)c1)n1ccc2cc([N+](=O)[O-])ccc21 [Example 6, N-(4-cyano-3-trifluoromethyl)-phenyl-2-(5-nitro-1H-indolyl-1-yl)-2-methylpropanamide]",261,421
"CC(C)(C(=O)Nc1ccc(C#N)c(C(F)(F)F)c1)n1ccc2c(F)cc(-c3ccc(F)cc3)cc21 [Example 1, N-(4-cyano-3-trifluoromethyl)-phenyl-2-[4-fluoro-6-(4-fluorophenyl)-1H-indolyl-1-yl]-2-methylpropanamide]",546,–
"CC(C)(C(=O)Nc1ccc(C#N)c(C(F)(F)F)c1)n1cc(-c2ccc(F)cc2)cn1 [Example 14, N-(4-cyano-3-trifluoromethyl)-phenyl-2-[4-(4-fluorophenyl)-1H-pyrazolyl-1-yl]-2-methylpropanamide]",760,–
"CC(C)(C(=O)Nc1ccc(C#N)c(C(F)(F)F)c1)n1cc(F)cn1 [Example 15, N-(4-cyano-3-trifluoromethyl)-phenyl-2-(4-fluoro-1H-pyrazolyl-1-yl)-2-methylpropanamide]",125,–
